Data from patent publication US6444849B1, “Amide derivatives” (Mitsubishi Chemical Corporation, priority 1997, dated 2002).
Values after ≈ are worked out from the molar mass of the structure shown.

Assays:
Campylobacter jejuni = assay: Measurement of anti-Campylobacter jejuni activity (MIC); type: cell-based; settings: method similar to Test Example 1
Method: Brain heart infusion culture medium containing 10% fetal bovine serum (Difco) (5 ml) was taken in a test tube, and then the medium was inoculated with Helicobacter pylori strain 31A isolated from human (obtained from the Metropolitan Health Institute, Microorganism Department, First Laboratory of Bacteria). Cultivation was carried out under slightly aerobic condition (5% oxygen, 10% carbon dioxide, 85% nitrogen) at 37° C. for 48 hours with shaking.
The culture was then inoculated to brain heart infusion medium containing 10% fetal bovine serum at a ratio of 5%, and added with a test compound dissolved in 10% dimethyl sulfoxide. Cultivation was carried out under slightly aerobic condition at 37° C. for 48 hours with shaking, and then growth of Helicobacter pylori was examined. […] From the results shown in Tables 3 and 4, it can be understood that the compounds of the present invention have potent inhibitory activity against Helicobacter pylori.
According to a aimiar method to that of Test Example 1, inhibitory activity of the compound of the present invention against Campylobacter jejune was determined. As a result, MIC of the compound of Example 31 was 0.008 μg/ml. From the result, it can be understood that the compound of the present invention has potent inhibitory activity against Campylobacter jejumni.

in vivo = settings: both sexes, rat, oral, suspended in 0.5% CMC-Na aqueous solution, SD male and female rats, observed for seven days

| MIC (Campylobacter jejuni) [ng/mL] | Compound | LD50 (in vivo) [mg/kg] |
| --- | --- | --- |
| 8 (≈ 0.0251 µM) | CNC(=O)c1cccc(NC(=O)Cc2ccc3ccccc3c2)c1 [Example 31, N-(3-Methylcarbamoylphenyl)-2-naphthylacetnide] | – |
| – | CNC(=O)c1cccc(NC(=O)Cc2cccc3ccccc23)c1 [Example 30, N-(3-Methylcarbamoylphenyl)-1-naphthylacetamide] | ≥ 2000 |
